These results are taken from patent US20170029355A1, “LABILE ESTERS OF AGROCHEMICALS FOR CONTROLLED RELEASE AND REDUCTION OF OFF-SITE MOVEMENT” (Monsanto Technology LLC, priority 2011, published 2017).

A short description of data set [1]: In vitro photo-release and hydrolytic release of dicamba in an aqueous medium (Example 36). The format is physicochemical. The following applies: 0.01 mM (0.005 mM for diesters); for Conversion to Dicamba, Dark, Day 0 / Conversion to Dicamba, Dark, Day 1 / Conversion to Dicamba, Dark, Day 2 / Conversion to Dicamba, Dark, Day 3 / Conversion to Dicamba, Dark, Day 4 / Conversion to Dicamba, Dark, Day 7 / Conversion to Dicamba, Dark, Day 14 / Conversion to dicamba, Dark, Day 10 / Conversion to Dicamba, Dark, Day 21 / Conversion to Dicamba, Dark, Day 28: amber (dark) bottle; for Conversion to Dicamba, Light, Day 0 / Conversion to Dicamba, Light, Day 1 / Conversion to Dicamba, Light, Day 2 / Conversion to Dicamba, Light, Day 3 / Conversion to Dicamba, Light, Day 4 / Conversion to Dicamba, Light, Day 7 / Conversion to Dicamba, Light, Day 14 / Conversion to dicamba, Light, Day 10 / Conversion to Dicamba, Light, Day 21 / Conversion to Dicamba, Light, Day 28: quartz tube. The procedure: This Example describes the determination of photo-lability and hydrolytic lability of dicamba esters in an aqueous medium. 1 mM solutions of the esters were prepared in acetonitrile (or […] solutions of dicamba diesters). The solutions were then diluted with deionized water to a concentration of 0.01 mM (or 0.005 mM for diesters). The solutions were then transferred to quartz tubes and amber bottles and held in a growth chamber by the procedure of Example 26. A 14-hour day was generally used at a constant temperature of 35° C. Hydrolytic activity was assessed by measuring the increase in dicamba concentration after day zero in the amber (dark) bottles. […] Photolysis manifested itself as increased conversion in the quartz tubes compared to the dark control.
This Example provides the results of an aqueous lability test following the protocol of Example 35 for several dicamba esters which convert to dicamba primarily by hydrolysis. As shown by the results in the table below, conversion of the dark controls generally equaled or exceeded conversion in the photolysis solutions.

The next data set relates to velvetleaf. Put plainly: Greenhouse post-emergent control of velvetleaf by emulsifiable concentrates (Example 37). In kind it is in vivo. The settings on record: for pest or weed control at 140 g/ha / pest or weed control at 280 g/ha / pest or weed control at 420 g/ha / pest or weed control at 560 g/ha: Abutilon theophrasti, post-emergence, 504 h; for pest or weed control at 140 g/ha: read-out: % Control of velvetleaf, 140 g/ha; for pest or weed control at 280 g/ha: read-out: % Control of velvetleaf, 280 g/ha; for pest or weed control at 420 g/ha: read-out: % Control of velvetleaf, 420 g/ha; for pest or weed control at 560 g/ha: read-out: % Control of velvetleaf, 560 g/ha. The procedure:
The efficacy of some photo-labile ester formulations from Example 28 for post-emergent control of velvetleaf was tested in the greenhouse. All formulations were tested at rates of 140, 280, 420, and 560 g dicamba equivalent per hectare rates and compared to the diglycolamine salt of dicamba (CLARITY®) at the same rates and untreated control plants. The velvetleaf plants were 10-15 cm in height at the time of spraying. Percent control was evaluated three weeks after treatment.
The methodology of Example 29 was used to evaluate the efficacy of several esters of dicamba which convert to dicamba by hydrolysis for post-emergent control of velvetleaf as emulsifiable concentrate formulations.

Read-outs that look alike come from different tables or passages of the source.

With `COc1ccc(COC(=O)c2c(Cl)ccc(Cl)c2OC)cc1` [Ester 29a, 4-methoxybenzyl ester of dicamba], in data set [1], the “Conversion to Dicamba, Dark, Day 0” value worked out at 27%; the “Conversion to Dicamba, Dark, Day 1” value was 81%; the “Conversion to Dicamba, Dark, Day 2” value is on record as 83%; the “Conversion to Dicamba, Dark, Day 3” value was 83%. Moreover, in data set [1], the “Conversion to Dicamba, Dark, Day 4” value is 80%; the “Conversion to Dicamba, Dark, Day 7” value worked out at 84%; the “Conversion to Dicamba, Dark, Day 14” value came out at 85%; the “Conversion to Dicamba, Light, Day 0” value was 27%. In data set [1], the “Conversion to Dicamba, Light, Day 1” value stood at 75%; the “Conversion to Dicamba, Light, Day 2” value is reported as 74%; the “Conversion to Dicamba, Light, Day 3” value was 75%; the “Conversion to Dicamba, Light, Day 4” value is 74%. In addition, in data set [1], the “Conversion to Dicamba, Light, Day 7” value was 76% and the “Conversion to Dicamba, Light, Day 14” value stood at 77%. The pest or weed control at 140 g/ha with velvetleaf (greenhouse, 140 g/ha, Example 37) was found to be 30%. In addition, the pest or weed control at 280 g/ha with velvetleaf (greenhouse, 280 g/ha, Example 37) is 55%. Besides, the pest or weed control at 420 g/ha with velvetleaf (greenhouse, 420 g/ha, Example 37) was 74.2%. The pest or weed control at 560 g/ha in the data set with velvetleaf (greenhouse, 560 g/ha, Example 37) came out at 81.7%.
`C=C(C(=O)OCC)C(OC(=O)c1c(Cl)ccc(Cl)c1OC)c1ccccc1[N+](=O)[O-]` (stereo not shown) [Ester 31a]: in data set [1], the “Conversion to Dicamba, Dark, Day 0” value came out at 16%; the “Conversion to Dicamba, Dark, Day 1” value is reported as 37%; the “Conversion to Dicamba, Dark, Day 2” value stood at 43%; the “Conversion to Dicamba, Dark, Day 3” value worked out at 43%. Further, in data set [1], the “Conversion to Dicamba, Dark, Day 4” value was 44%; the “Conversion to Dicamba, Dark, Day 7” value worked out at 49%; the “Conversion to dicamba, Dark, Day 10” value is 50%; the “Conversion to Dicamba, Dark, Day 14” value is given as 51%. Moreover, in data set [1], the “Conversion to Dicamba, Dark, Day 21” value was determined as 49%; the “Conversion to Dicamba, Dark, Day 28” value is 50%; the “Conversion to Dicamba, Light, Day 0” value was 16%; the “Conversion to Dicamba, Light, Day 1” value came out at 45%. In data set [1], the “Conversion to Dicamba, Light, Day 2” value is 48%; the “Conversion to Dicamba, Light, Day 3” value stood at 46%; the “Conversion to Dicamba, Light, Day 4” value came to 45%; the “Conversion to Dicamba, Light, Day 7” value was determined as 46%. Besides, in data set [1], the “Conversion to dicamba, Light, Day 10” value was 50%; the “Conversion to Dicamba, Light, Day 14” value amounted to 51%; the “Conversion to Dicamba, Light, Day 21” value is listed as 53%; the “Conversion to Dicamba, Light, Day 28” value worked out at 53%.
In the case of `COc1c(Cl)ccc(Cl)c1C(=O)Oc1ccc(=O)n(CCC=O)n1` [Ester 33a], in data set [1], the “Conversion to Dicamba, Dark, Day 0” value is given as 13%; the “Conversion to Dicamba, Dark, Day 1” value is 15%; the “Conversion to Dicamba, Dark, Day 2” value is listed as 18%; the “Conversion to Dicamba, Dark, Day 3” value is listed as 18%. Moreover, in data set [1], the “Conversion to Dicamba, Dark, Day 4” value worked out at 22%; the “Conversion to Dicamba, Dark, Day 7” value is 21%; the “Conversion to dicamba, Dark, Day 10” value worked out at 28%; the “Conversion to Dicamba, Dark, Day 14” value came out at 37%. Besides, in data set [1], the “Conversion to Dicamba, Dark, Day 21” value is reported as 50%; the “Conversion to Dicamba, Dark, Day 28” value is 55%; the “Conversion to Dicamba, Light, Day 0” value is on record as 13%; the “Conversion to Dicamba, Light, Day 1” value was 18%. Further, in data set [1], the “Conversion to Dicamba, Light, Day 2” value turned out to be 20%; the “Conversion to Dicamba, Light, Day 3” value is reported as 19%; the “Conversion to Dicamba, Light, Day 4” value was 22%; the “Conversion to Dicamba, Light, Day 7” value is reported as 23%. Further, in data set [1], the “Conversion to dicamba, Light, Day 10” value is reported as 30%; the “Conversion to Dicamba, Light, Day 14” value came out at 42%; the “Conversion to Dicamba, Light, Day 21” value was determined as 53%; the “Conversion to Dicamba, Light, Day 28” value amounted to 57%. Besides, in the data set with velvetleaf, the pest or weed control at 140 g/ha came to 15.8%, the pest or weed control at 280 g/ha came out at 27.5%, the pest or weed control at 420 g/ha came out at 22.5% and the pest or weed control at 560 g/ha turned out to be 30.8%. The “post-emergent efficacy on velvetleaf compared with the salt, in words” value in the data set with velvetleaf (greenhouse, emulsifiable concentrates) is on record as “reduced post-emergent efficacy”.
Take `CCOC(=O)CCn1nc(OC(=O)c2c(Cl)ccc(Cl)c2OC)ccc1=O` [Ester 35a]: in data set [1], the “Conversion to Dicamba, Dark, Day 0” value turned out to be 19%; the “Conversion to Dicamba, Dark, Day 1” value is 66%; the “Conversion to Dicamba, Dark, Day 2” value was determined as 69%; the “Conversion to Dicamba, Dark, Day 3” value turned out to be 68%. In data set [1], the “Conversion to Dicamba, Dark, Day 4” value was found to be 71%; the “Conversion to Dicamba, Dark, Day 7” value is listed as 74%; the “Conversion to Dicamba, Dark, Day 14” value is 70%; the “Conversion to Dicamba, Dark, Day 21” value came out at 70%. In data set [1], the “Conversion to Dicamba, Dark, Day 28” value was determined as 74%; the “Conversion to Dicamba, Light, Day 0” value stood at 19%; the “Conversion to Dicamba, Light, Day 1” value turned out to be 57%; the “Conversion to Dicamba, Light, Day 2” value was 58%. In addition, in data set [1], the “Conversion to Dicamba, Light, Day 3” value turned out to be 58%; the “Conversion to Dicamba, Light, Day 4” value was found to be 62%; the “Conversion to Dicamba, Light, Day 7” value was 60%; the “Conversion to Dicamba, Light, Day 14” value turned out to be 64%. For the same compound, in data set [1], the “Conversion to Dicamba, Light, Day 21” value is 63% and the “Conversion to Dicamba, Light, Day 28” value is 65%. Also, in the data set on velvetleaf, the pest or weed control at 140 g/ha turned out to be 35.8%, the pest or weed control at 280 g/ha came to 60%, the pest or weed control at 420 g/ha turned out to be 85% and the pest or weed control at 560 g/ha was 87.5%.
